Legend:
bedstraw = assay: Test B pre/postemergence bedstraw; type: in vivo, Galium aparine
Procedure, shortened: (§1)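 Herbicidal effect was estimated by eye on a ten-point control scale after plants spent twelve to sixteen days in a greenhouse following soil or foliar treatment. Foliar sprays targeted plants at one to four leaves; all doses were formulated in a non-phytotoxic solvent with surfactant.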

surinam grass = assay: Test B pre/postemergence surinam grass; type: in vivo, Brachiaria decumbens
Procedure, shortened: as §1

cocklebur = assay: Test B pre/postemergence cocklebur; type: in vivo, Xanthium strumarium
Procedure, shortened: as §1

corn = assay: Test B pre/postemergence corn; type: in vivo, Zea mays
Procedure, shortened: as §1

crabgrass = assay: Test B pre/postemergence crabgrass; type: in vivo, Digitaria sanguinalis
Procedure, shortened: as §1

morningglory = assay: Test B pre/postemergence morningglory; type: in vivo, Ipomoea hederacea
Procedure, shortened: as §1

pigweed = assay: Test B pre/postemergence pigweed; type: in vivo, Amaranthus retroflexus
Procedure, shortened: as §1

rape = assay: Test B pre/postemergence rape; type: in vivo, Brassica napus
Procedure, shortened: as §1

soybean = assay: Test B pre/postemergence soybean; type: in vivo, Glycine max
Procedure, shortened: as §1

sugar beet = assay: Test B pre/postemergence sugar beet; type: in vivo, Beta vulgaris
Procedure, shortened: as §1

velvetleaf = assay: Test B pre/postemergence velvetleaf; type: in vivo, Abutilon theophrasti
Procedure, shortened: as §1

wild oat = assay: Test B pre/postemergence wild oat; type: in vivo, Avena fatua
Procedure, shortened: as §1

rice = assay: Test B flood test rice; type: in vivo, Oryza sativa
Procedure, shortened: (§2)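 Plants were grown to the 2-leaf stage before treatment with test chemical, then held in a greenhouse for twelve to sixteen days. Injury was visually rated against untreated controls on a 0–10 scale, where 0 is no effect and 10 is complete control.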

smallflower flatsedge = assay: Test B flood test smallflower flatsedge; type: in vivo, Cyperus difformis
Procedure, shortened: as §2

duck salad = assay: Test B flood test duck salad; type: in vivo, Heteranthera limosa
Procedure, shortened: as §2

bamyardgrass = assay: Test B flood test barnyardgrass; type: in vivo, Echinochloa crus-galli
Procedure, shortened: as §2

[1] = Postemergence, Rate 250 g/ha, scale 0 to 10, 0 no effect, 10 complete control
[2] = Postemergence, Rate 1000 g/ha, scale 0 to 10 (0 no effect, 10 complete control)
[3] = Preemergence, Rate 125 g/ha, scale 0 to 10 (0 no effect, 10 complete control)
[4] = Preemergence, Rate 250 g/ha, scale of 0 to 10 where 0 is no effect and 10 is complete control
[5] = Preemergence, Rate 500 g/ha, scale 0 (no effect) to 10 (complete control)
[6] = Rate 125 g/ha, Postemergence, scale 0 to 10, 0 no effect, 10 complete control
[7] = Rate 500 g/ha, Postemergence, 0 to 10 scale (0 no effect, 10 complete control)
[8] = Rate 1000 g/ha, Preemergence, scale 0 to 10 (0 no effect, 10 complete control)
[9] = Rate 125 g/ha, Postemergence section (flood test species), scale 0 to 10, 0 no effect, 10 complete control
[10] = Rate 250 g/ha, headed Pre-emergence (flood test species), scale 0 to 10 (0 no effect, 10 complete control)
[11] = Rate 500 g/ha, Postemergence section of Table B, 0 to 10 scale (0 no effect, 10 complete control)
[12] = Rate 500 g/ha, headed Pre-emergence (flood test species), scale 0 to 10 (0 no effect, 10 complete control)
[13] = Rate 1000 g/ha, Pre-emergence (as headed), scale 0 to 10
[14] = Rate 2000 g/ha, Pre-emergence (as headed), scale 0 to 10
[15] = flood test, listed under Postemergence, Rate 250 g/ha, scale 0 to 10, 0 no effect, 10 complete control

CC(C)N(C(=O)n1oc(=O)n(-c2ccc(Cl)cc2Cl)c1=O)c1ccc(F)cc1 [Compound 7, 4-(2,4-Dichlorophenyl)-N-(4-fluorophenyl)-N-(1-methylethyl)-3,5-dioxo-1,2,4-oxadiazolidine-2-carboxamide]
8: Crabgrass plant response rating (crabgrass; [5]) | Plant response rating, Crabgrass (crabgrass; [8])
0: Bedstraw plant response rating (bedstraw; [1]) | Plant response rating, Bedstraw (bedstraw; [3]) | Plant response rating, Bedstraw (bedstraw; [4]) | Bedstraw plant response rating (bedstraw; [5]) | Bedstraw plant response rating (bedstraw; [6]) | Bedstraw plant response rating (bedstraw; [7]) | Plant response rating, Bedstraw (bedstraw; [8]) | B. signalgrass plant response rating (surinam grass; [1]) | Plant response rating, B. signalgrass (surinam grass; [3]) | Plant response rating, B. signalgrass (surinam grass; [4]) | B. signalgrass plant response rating (surinam grass; [5]) | B. signalgrass plant response rating (surinam grass; [6]) | Cocklebur plant response rating (cocklebur; [1]) | Plant response rating, Cocklebur (cocklebur; [4]) | Cocklebur plant response rating (cocklebur; [5]) | Cocklebur plant response rating (cocklebur; [6]) | Cocklebur plant response rating (cocklebur; [7]) | Plant response rating, Cocklebur (cocklebur; [8]) | Corn plant response rating (corn; [1]) | Corn plant response rating (corn; [2]) | Plant response rating, Corn (corn; [3]) | Plant response rating, Corn (corn; [4]) | Corn plant response rating (corn; [5]) | Corn plant response rating (corn; [6]) | Corn plant response rating (corn; [7]) | Plant response rating, Corn (corn; [8]) | Crabgrass plant response rating (crabgrass; [6]) | Plant response rating, Morningglory (morningglory; [3]) | Plant response rating, Morningglory (morningglory; [4]) | Morningglory plant response rating (morningglory; [5]) | Morningglory plant response rating (morningglory; [6]) | Morningglory plant response rating (morningglory; [7]) | Plant response rating, Morningglory (morningglory; [8]) | Redroot pigweed plant response rating (pigweed; [1]) | Redroot pigweed plant response rating (pigweed; [2]) | Plant response rating, Redroot pigweed (pigweed; [3]) | Plant response rating, Redroot pigweed (pigweed; [4]) | Redroot pigweed plant response rating (pigweed; [5]) | Redroot pigweed plant response rating (pigweed; [6]) | Redroot pigweed plant response rating (pigweed; [7]) | Rape plant response rating (rape; [1]) | Rape plant response rating (rape; [2]) | Plant response rating, Rape (rape; [3]) | Plant response rating, Rape (rape; [4]) | Rape plant response rating (rape; [5]) | Rape plant response rating (rape; [6]) | Rape plant response rating (rape; [7]) | Plant response rating, Rape (rape; [8]) | Plant response rating, Soybean (soybean; [3]) | Plant response rating, Soybean (soybean; [4]) | Soybean plant response rating (soybean; [5]) | Soybean plant response rating (soybean; [6]) | Plant response rating, Soybean (soybean; [8]) | Sugarbeets plant response rating (sugar beet; [1]) | Plant response rating, Sugarbeets (sugar beet; [3]) | Plant response rating, Sugarbeets (sugar beet; [4]) | Sugarbeets plant response rating (sugar beet; [5]) | Sugarbeets plant response rating (sugar beet; [6]) | Plant response rating, Sugarbeets (sugar beet; [8]) | Velvetleaf plant response rating (velvetleaf; [1]) | Velvetleaf plant response rating (velvetleaf; [2]) | Plant response rating, Velvetleaf (velvetleaf; [3]) | Plant response rating, Velvetleaf (velvetleaf; [4]) | Velvetleaf plant response rating (velvetleaf; [5]) | Velvetleaf plant response rating (velvetleaf; [6]) | Plant response rating, Velvetleaf (velvetleaf; [8]) | Wild oats plant response rating (wild oat; [1]) | Plant response rating, Wild oats (wild oat; [3]) | Plant response rating, Wild oats (wild oat; [4]) | Wild oats plant response rating (wild oat; [5]) | Wild oats plant response rating (wild oat; [6]) | Plant response rating, Wild oats (wild oat; [8]) | Rice plant response rating (rice; [2]) | Rice plant response rating (rice; [9]) | Rice plant response rating (rice; [10]) | Rice plant response rating (rice; [11]) | Plant response rating, Rice (rice; [12]) | Rice plant response rating (rice; [13]) | Rice plant response rating (rice; [14]) | Rice plant response rating (rice; [15]) | S. Flatsedge plant response rating (smallflower flatsedge; [2]) | S. Flatsedge plant response rating (smallflower flatsedge; Pre-emergence, Rate 1000 g/ha, scale 0 to 10 (0 no effect, 10 complete control)) | S. Flatsedge plant response rating (smallflower flatsedge; [9]) | S. Flatsedge plant response rating (smallflower flatsedge; [10]) | Plant response rating, S. Flatsedge (smallflower flatsedge; [12]) | S. Flatsedge plant response rating (smallflower flatsedge; [14]) | S. Flatsedge plant response rating (smallflower flatsedge; [15]) | Ducksalad plant response rating (duck salad; [2]) | Ducksalad plant response rating (duck salad; [9]) | Ducksalad plant response rating (duck salad; [10]) | Ducksalad plant response rating (duck salad; [11]) | Plant response rating, Ducksalad (duck salad; [12]) | Ducksalad plant response rating (duck salad; [13]) | Ducksalad plant response rating (duck salad; [14]) | Ducksalad plant response rating (duck salad; [15]) | Barnyardgrass plant response rating (bamyardgrass; [2]) | Barnyardgrass plant response rating (bamyardgrass; [9]) | Barnyardgrass plant response rating (bamyardgrass; [10]) | Barnyardgrass plant response rating (bamyardgrass; [11]) | Plant response rating, Barnyardgrass (bamyardgrass; [12]) | Barnyardgrass plant response rating (bamyardgrass; [13]) | Barnyardgrass plant response rating (bamyardgrass; Rate 2000 g/ha, Pre-emergence (as headed), scale 0 to 10, 0 no effect, 10 complete control) | Barnyardgrass plant response rating (bamyardgrass; [15])
6: B. signalgrass plant response rating (surinam grass; [2])
7: Plant response rating, Crabgrass (crabgrass; [3])
5: Crabgrass plant response rating (crabgrass; [2]) | Soybean plant response rating (soybean; [2])
1: Crabgrass plant response rating (crabgrass; [1]) | Soybean plant response rating (soybean; [1])
3: B. signalgrass plant response rating (surinam grass; [7]) | Plant response rating, B. signalgrass (surinam grass; [8]) | Crabgrass plant response rating (crabgrass; [7]) | Morningglory plant response rating (morningglory; [2]) | Wild oats plant response rating (wild oat; [2])
4: Bedstraw plant response rating (bedstraw; [2])
2: Cocklebur plant response rating (cocklebur; [2]) | Plant response rating, Redroot pigweed (pigweed; [8]) | Sugarbeets plant response rating (sugar beet; [2])
